From BindingDB's records for patent USRE47493 (Boehringer Ingelheim International, 2019) come the findings set out here.

Molecules are shown by their SMILES.

This assay has as its target T1, Neutrophil elastase (Homo sapiens, UniProt P08246).
T1 sequence (P08246 whole entry): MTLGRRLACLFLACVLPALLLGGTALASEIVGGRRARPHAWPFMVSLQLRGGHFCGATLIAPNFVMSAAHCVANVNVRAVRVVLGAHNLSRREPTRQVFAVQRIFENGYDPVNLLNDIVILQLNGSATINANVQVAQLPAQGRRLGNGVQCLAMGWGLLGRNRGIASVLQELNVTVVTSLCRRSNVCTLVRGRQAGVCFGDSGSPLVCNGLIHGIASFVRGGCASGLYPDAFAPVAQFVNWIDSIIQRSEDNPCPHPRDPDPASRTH
The experiment in a line: Enzyme Inhibition Assay. The protocol: All other materials were of the highest grade commercially available.The following buffers were used: Compound buffer: 100 mM Tris, 500 mM NaCl, adjusted to pH 7.5; Assay buffer: 100 mM Tris, 500 mM NaCl, adjusted to pH 7.5, containing 0.01% BSA.Assay conditions: Test compounds were prediluted in DMSO and subsequently in compound buffer (5% DMSO final). […] After inactivation of the enzyme, fluorescence intensities were measured at 380 nm excitation and 460 nm emission wavelengths.

`N#Cc1ccc(C2C3=C(CCCC3=O)N(c3cccc(C(F)(F)F)c3)C(=O)N2C(=O)NC2CCC[C@@H]2O)cc1` (some centres not stated) [USRE47493, Example 70.12]: the IC50 was less than 1 nM.

`N#Cc1ccc(C2C3=C(CCCC3=O)N(c3cccc(C(F)(F)F)c3)C(=O)N2C(=O)NC2CCCC[C@@H]2O)cc1` (some centres not stated) [USRE47493, Example 70.17] displayed an IC50 of 1.1 nM.

As usually defined, the IC50 is the point on the concentration scale where inhibition reaches its midpoint. Lower therefore signals greater potency in that assay.
